In the OligoGym collection:
Oligonucleotides are written 5' to 3', each unit as a sugar letter and its base; * is a phosphorothioate linkage, no mark a phosphodiester; rarer units and linkages stand in square brackets, end groups in braces. Plain capitals give the bases only. d = 2'-deoxy (DNA); r = 2'-OH (RNA)

Experiment: reporter assay of Huesken 2005
Conditions: siRNA
Also: test concentration or dose not given here.

**Q.** Which normalised inhibition (eCFP-eYFP dual reporter) does the source give for “sense rArArArCrGrCrCrUrArCrGrGrGrArGrUrCrArAdTdT / antisense rUrUrGrArCrUrCrCrCrGrUrArGrGrCrGrUrUrUdGdC” here?
**A.** Its normalised inhibition (eCFP-eYFP dual reporter) is 93.6%.

**Q.** With “sense rArArGrArArArCrUrUrGrCrUrCrCrArGrArUrUdTdT / antisense rArArUrCrUrGrGrArGrCrArArGrUrUrUrCrUrUdCdT” as the substance, how does the normalised inhibition (eCFP-eYFP dual reporter) read?
**A.** Its normalised inhibition (eCFP-eYFP dual reporter) is 79%.

**Q.** Which normalised inhibition (eCFP-eYFP dual reporter) does the source give for “sense rArArUrCrUrGrGrCrArGrArCrUrArCrArGrUrUdTdT / antisense rArArCrUrGrUrArGrUrCrUrGrCrCrArGrArUrUdCdC” here?
**A.** The normalised inhibition (eCFP-eYFP dual reporter) was 81.7%.

**Q.** For “sense rArArUrGrArGrCrUrCrCrUrUrArCrUrUrArArCdTdT / antisense rGrUrUrArArGrUrArArGrGrArGrCrUrCrArUrUdCdC”, which normalised inhibition (eCFP-eYFP dual reporter) is on record?
**A.** The normalised inhibition (eCFP-eYFP dual reporter) was 70.8%.

**Q.** For “sense rArCrArCrCrArGrArGrCrCrUrGrCrCrCrCrArCdTdT / antisense rGrUrGrGrGrGrCrArGrGrCrUrCrUrGrGrUrGrUdGdA”, which normalised inhibition (eCFP-eYFP dual reporter) is on record?
**A.** Its normalised inhibition (eCFP-eYFP dual reporter) is 72.8%.

**Q.** For “sense rArCrCrCrUrUrUrArCrArGrArArCrArCrCrCrAdTdT / antisense rUrGrGrGrUrGrUrUrCrUrGrUrArArArGrGrGrUdGdG”, which normalised inhibition (eCFP-eYFP dual reporter) is on record?
**A.** The normalised inhibition (eCFP-eYFP dual reporter) was 86.5%.

**Q.** Which normalised inhibition (eCFP-eYFP dual reporter) does the source give for “sense rArCrUrCrCrUrUrCrCrUrUrCrUrCrUrGrArArGdTdT / antisense rCrUrUrCrArGrArGrArArGrGrArArGrGrArGrUdCdC” here?
**A.** The normalised inhibition (eCFP-eYFP dual reporter) was 50.7%.

**Q.** With “sense rArCrUrGrArUrGrUrUrCrCrUrUrGrUrGrGrArCdTdT / antisense rGrUrCrCrArCrArArGrGrArArCrArUrCrArGrUdGdA” as the substance, how does the normalised inhibition (eCFP-eYFP dual reporter) read?
**A.** The normalised inhibition (eCFP-eYFP dual reporter) was 55.2%.

**Q.** With “sense rArCrUrUrArArCrUrUrCrUrGrArGrCrArArUrAdTdT / antisense rUrArUrUrGrCrUrCrArGrArArGrUrUrArArGrUdAdA” as the substance, how does the normalised inhibition (eCFP-eYFP dual reporter) read?
**A.** Its normalised inhibition (eCFP-eYFP dual reporter) is 90.7%.

**Q.** With “sense rArGrArArCrArCrCrCrArGrGrArArUrUrCrUrUdTdT / antisense rArArGrArArUrUrCrCrUrGrGrGrUrGrUrUrCrUdGdT” as the substance, how does the normalised inhibition (eCFP-eYFP dual reporter) read?
**A.** Its normalised inhibition (eCFP-eYFP dual reporter) is 84.5%.

**Q.** For “sense rArGrArArGrArArArCrUrUrGrCrUrCrCrArGrAdTdT / antisense rUrCrUrGrGrArGrCrArArGrUrUrUrCrUrUrCrUdCdA”, which normalised inhibition (eCFP-eYFP dual reporter) is on record?
**A.** The normalised inhibition (eCFP-eYFP dual reporter) was 90%.

**Q.** With “sense rArGrArCrUrArCrArGrUrUrUrCrUrUrUrCrCrCdTdT / antisense rGrGrGrArArArGrArArArCrUrGrUrArGrUrCrUdGdC” as the substance, how does the normalised inhibition (eCFP-eYFP dual reporter) read?
**A.** The normalised inhibition (eCFP-eYFP dual reporter) was 55.6%.

**Q.** For “sense rArGrCrGrGrGrArGrArGrArGrCrArArCrArGrGdTdT / antisense rCrCrUrGrUrUrGrCrUrCrUrCrUrCrCrCrGrCrUdGdC”, which normalised inhibition (eCFP-eYFP dual reporter) is on record?
**A.** The normalised inhibition (eCFP-eYFP dual reporter) was 43.5%.

**Q.** Which normalised inhibition (eCFP-eYFP dual reporter) does the source give for “sense rArGrGrUrCrArCrCrArGrArGrUrGrGrArArArCdTdT / antisense rGrUrUrUrCrCrArCrUrCrUrGrGrUrGrArCrCrUdTdT” here?
**A.** The normalised inhibition (eCFP-eYFP dual reporter) was 94.3%.

**Q.** With “sense rArGrUrGrArUrCrCrCrGrGrGrGrCrUrGrArGrAdTdT / antisense rUrCrUrCrArGrCrCrCrCrGrGrGrArUrCrArCrUdGdG” as the substance, how does the normalised inhibition (eCFP-eYFP dual reporter) read?
**A.** The normalised inhibition (eCFP-eYFP dual reporter) was 94.9%.

**Q.** For “sense rArUrUrGrUrUrCrCrUrGrUrGrArArCrUrGrUrGdTdT / antisense rCrArCrArGrUrUrCrArCrArGrGrArArCrArArUdGdA”, which normalised inhibition (eCFP-eYFP dual reporter) is on record?
**A.** Its normalised inhibition (eCFP-eYFP dual reporter) is 76.9%.

**Q.** With “sense rCrArArUrCrCrGrCrCrCrCrArCrCrCrUrUrUrAdTdT / antisense rUrArArArGrGrGrUrGrGrGrGrCrGrGrArUrUrGdGdG” as the substance, how does the normalised inhibition (eCFP-eYFP dual reporter) read?
**A.** Its normalised inhibition (eCFP-eYFP dual reporter) is 80.2%.

**Q.** Which normalised inhibition (eCFP-eYFP dual reporter) does the source give for “sense rCrArCrCrArGrArGrCrCrUrGrCrCrCrCrArCrCdTdT / antisense rGrGrUrGrGrGrGrCrArGrGrCrUrCrUrGrGrUrGdTdG” here?
**A.** The normalised inhibition (eCFP-eYFP dual reporter) was 90.4%.

**Q.** With “sense rCrArCrCrArGrArGrUrGrGrArArArCrUrCrArCdTdT / antisense rGrUrGrArGrUrUrUrCrCrArCrUrCrUrGrGrUrGdAdC” as the substance, how does the normalised inhibition (eCFP-eYFP dual reporter) read?
**A.** Its normalised inhibition (eCFP-eYFP dual reporter) is 92.8%.

**Q.** Which normalised inhibition (eCFP-eYFP dual reporter) does the source give for “sense rCrArGrGrGrGrCrArGrCrGrGrGrArGrArGrArGdTdT / antisense rCrUrCrUrCrUrCrCrCrGrCrUrGrCrCrCrCrUrGdAdA” here?
**A.** Its normalised inhibition (eCFP-eYFP dual reporter) is 66.2%.

**Q.** With “sense rCrArGrGrGrUrArUrGrCrArCrArCrCrCrGrUrGdTdT / antisense rCrArCrGrGrGrUrGrUrGrCrArUrArCrCrCrUrGdTdT” as the substance, how does the normalised inhibition (eCFP-eYFP dual reporter) read?
**A.** Its normalised inhibition (eCFP-eYFP dual reporter) is 70.6%.

**Q.** For “sense rCrCrArCrArUrGrGrUrGrUrGrGrArArUrCrUrGdTdT / antisense rCrArGrArUrUrCrCrArCrArCrCrArUrGrUrGrGdCdA”, which normalised inhibition (eCFP-eYFP dual reporter) is on record?
**A.** The normalised inhibition (eCFP-eYFP dual reporter) was 40.2%.

**Q.** Which normalised inhibition (eCFP-eYFP dual reporter) does the source give for “sense rCrCrArGrArGrUrGrGrArArArCrUrCrArCrArCdTdT / antisense rGrUrGrUrGrArGrUrUrUrCrCrArCrUrCrUrGrGdTdG” here?
**A.** The normalised inhibition (eCFP-eYFP dual reporter) was 95.3%.

**Q.** For “sense rCrCrArGrGrGrGrArCrArGrGrCrArGrCrArGrGdTdT / antisense rCrCrUrGrCrUrGrCrCrUrGrUrCrCrCrCrUrGrGdGdC”, which normalised inhibition (eCFP-eYFP dual reporter) is on record?
**A.** The normalised inhibition (eCFP-eYFP dual reporter) was 45.6%.

**Q.** Which normalised inhibition (eCFP-eYFP dual reporter) does the source give for “sense rCrCrCrGrGrGrGrCrUrGrArGrArArArGrUrUrCdTdT / antisense rGrArArCrUrUrUrCrUrCrArGrCrCrCrCrGrGrGdAdT” here?
**A.** Its normalised inhibition (eCFP-eYFP dual reporter) is 85.4%.

**Q.** Which normalised inhibition (eCFP-eYFP dual reporter) does the source give for “sense rCrCrUrGrUrCrArGrGrGrGrUrCrGrGrArGrUrGdTdT / antisense rCrArCrUrCrCrGrArCrCrCrCrUrGrArCrArGrGdCdA” here?
**A.** Its normalised inhibition (eCFP-eYFP dual reporter) is 72.5%.
